Data taken from PubChem BioAssay (NCI).
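Cells were grown in 96-well plates and exposed to each compound for 48 hours at five concentrations; endpoints were interpolated linearly between bracketing concentrations, or set to the highest concentration if not reached. Abbreviation: GI50, concentration required for 50% inhibition of growth. TGI denotes the concentration required for complete inhibition of growth.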

Tests used:
Experiment in all cases: NCI anticancer screen, dose series, 48 h
A549 NSCLC = system: A549 NSCLC
CCRF-CEM leukemia = system: CCRF-CEM leukemia
T-47D breast = system: T-47D breast
TK-10 renal = system: TK-10 renal
K-562 leukemia = system: K-562 leukemia
SR leukemia = system: SR leukemia
SK-MEL-5 melanoma = system: SK-MEL-5 melanoma
SF-268 CNS = system: SF-268 CNS
SK-MEL-2 melanoma = system: SK-MEL-2 melanoma
OVCAR-3 ovarian = system: OVCAR-3 ovarian
786-0 renal = system: 786-0 renal
NCI-H23 lung = system: NCI-H23 lung
SNB-75 CNS = system: SNB-75 CNS
MOLT-4 leukemia = system: MOLT-4 leukemia
OVCAR-5 ovarian = system: OVCAR-5 ovarian
SK-OV-3 ovarian = system: SK-OV-3 ovarian
NCI-H226 lung = system: NCI-H226 lung
MCF7 breast = system: MCF7 breast
U251 CNS = system: U251 CNS
ACHN renal = system: ACHN renal
HOP-62 NSCLC = system: HOP-62 NSCLC
LOX IMVI melanoma = system: LOX IMVI melanoma
HT29 colon = system: HT29 colon
EKVX NSCLC = system: EKVX NSCLC
SN12C renal = system: SN12C renal
COLO 205 colon = system: COLO 205 colon
UACC-257 melanoma = system: UACC-257 melanoma
OVCAR-8 ovarian = system: OVCAR-8 ovarian
HCT-116 colon = system: HCT-116 colon
NCI-H522 lung = system: NCI-H522 lung
BT-549 breast = system: BT-549 breast
PC-3 prostate = system: PC-3 prostate
UACC-62 melanoma = system: UACC-62 melanoma
RXF 393 renal = system: RXF 393 renal
SNB-19 CNS = system: SNB-19 CNS
NCI-H460 lung = system: NCI-H460 lung
CAKI-1 renal = system: CAKI-1 renal
NCI/ADR-RES ovarian = system: NCI/ADR-RES ovarian
HL-60(TB) leukemia = system: HL-60(TB) leukemia
SF-295 CNS = system: SF-295 CNS
HS 578T breast = system: HS 578T breast
SF-539 CNS = system: SF-539 CNS
HCC-2998 colon = system: HCC-2998 colon
DU-145 prostate = system: DU-145 prostate
UO-31 renal = system: UO-31 renal
SW-620 colon = system: SW-620 colon
OVCAR-4 ovarian = system: OVCAR-4 ovarian
A498 renal = system: A498 renal
KM12 colon = system: KM12 colon
HCT-15 colon = system: HCT-15 colon

N#Cc1c2cccnc2c2nnc3cc(Cl)c(Cl)cc3n12
GI50 (A549 NSCLC): > 100000 nM | TGI (A549 NSCLC): > 100000 nM | GI50 (CCRF-CEM leukemia): 3060 nM | TGI (CCRF-CEM leukemia): > 100000 nM | GI50 (T-47D breast): 1600 nM | TGI (T-47D breast): 4000 nM | GI50 (TK-10 renal): > 100000 nM | TGI (TK-10 renal): > 100000 nM | GI50 (K-562 leukemia): 3520 nM | TGI (K-562 leukemia): > 100000 nM | GI50 (SR leukemia): 923 nM | TGI (SR leukemia): 7510 nM | GI50 (SK-MEL-5 melanoma): > 100000 nM | TGI (SK-MEL-5 melanoma): > 100000 nM | GI50 (SF-268 CNS): 2260 nM | TGI (SF-268 CNS): 5250 nM | GI50 (SK-MEL-2 melanoma): 3330 nM | TGI (SK-MEL-2 melanoma): > 100000 nM | GI50 (OVCAR-3 ovarian): 1830 nM | TGI (OVCAR-3 ovarian): 3270 nM | GI50 (786-0 renal): > 100000 nM | TGI (786-0 renal): > 100000 nM | GI50 (NCI-H23 lung): 2810 nM | TGI (NCI-H23 lung): > 100000 nM | GI50 (SNB-75 CNS): 1540 nM | TGI (SNB-75 CNS): 3960 nM | GI50 (MOLT-4 leukemia): 3590 nM | TGI (MOLT-4 leukemia): > 100000 nM | GI50 (OVCAR-5 ovarian): > 100000 nM | TGI (OVCAR-5 ovarian): > 100000 nM | GI50 (SK-OV-3 ovarian): > 100000 nM | TGI (SK-OV-3 ovarian): > 100000 nM

O=C1CC(c2ccc3c(c2)OCO3)Nc2cc3c(cc21)OCO3 (stereo not drawn)
GI50 (A549 NSCLC): 600 nM | TGI (A549 NSCLC): > 100000 nM | GI50 (NCI-H226 lung): 13900 nM | TGI (NCI-H226 lung): > 100000 nM | GI50 (MCF7 breast): 364 nM | TGI (MCF7 breast): > 100000 nM | GI50 (CCRF-CEM leukemia): 363 nM | TGI (CCRF-CEM leukemia): > 100000 nM | GI50 (U251 CNS): 544 nM | TGI (U251 CNS): > 100000 nM | GI50 (TK-10 renal): 2770 nM | TGI (TK-10 renal): > 100000 nM | GI50 (K-562 leukemia): 358 nM | TGI (K-562 leukemia): > 100000 nM | GI50 (ACHN renal): 2050 nM | TGI (ACHN renal): > 100000 nM | GI50 (SR leukemia): 266 nM | TGI (SR leukemia): 12400 nM | GI50 (HOP-62 NSCLC): 523 nM | TGI (HOP-62 NSCLC): > 100000 nM | GI50 (LOX IMVI melanoma): 467 nM | TGI (LOX IMVI melanoma): 15300 nM | GI50 (HT29 colon): 374 nM | TGI (HT29 colon): 22300 nM | GI50 (SK-MEL-5 melanoma): 364 nM | TGI (SK-MEL-5 melanoma): 1940 nM | GI50 (SF-268 CNS): 830 nM | TGI (SF-268 CNS): > 100000 nM | GI50 (SK-MEL-2 melanoma): 747 nM | TGI (SK-MEL-2 melanoma): > 100000 nM | GI50 (EKVX NSCLC): 1930 nM | TGI (EKVX NSCLC): 72600 nM | GI50 (SN12C renal): 788 nM | TGI (SN12C renal): > 100000 nM | GI50 (OVCAR-3 ovarian): 344 nM | TGI (OVCAR-3 ovarian): 1450 nM | GI50 (786-0 renal): 778 nM | TGI (786-0 renal): 36300 nM | GI50 (NCI-H23 lung): 479 nM | TGI (NCI-H23 lung): > 100000 nM | GI50 (COLO 205 colon): 282 nM | TGI (COLO 205 colon): 885 nM | GI50 (UACC-257 melanoma): 21300 nM | TGI (UACC-257 melanoma): 83000 nM | GI50 (OVCAR-8 ovarian): 840 nM | TGI (OVCAR-8 ovarian): > 100000 nM | GI50 (HCT-116 colon): 1270 nM | TGI (HCT-116 colon): > 100000 nM | GI50 (NCI-H522 lung): 551 nM | TGI (NCI-H522 lung): 16800 nM | GI50 (MOLT-4 leukemia): 560 nM | TGI (MOLT-4 leukemia): > 100000 nM | GI50 (BT-549 breast): 3240 nM | TGI (BT-549 breast): > 100000 nM | GI50 (PC-3 prostate): 464 nM | TGI (PC-3 prostate): > 100000 nM | GI50 (UACC-62 melanoma): 673 nM | TGI (UACC-62 melanoma): > 100000 nM | GI50 (RXF 393 renal): 343 nM | TGI (RXF 393 renal): 4440 nM | GI50 (OVCAR-5 ovarian): 2300 nM | TGI (OVCAR-5 ovarian): > 100000 nM | GI50 (SNB-19 CNS): 687 nM | TGI (SNB-19 CNS): > 100000 nM | GI50 (NCI-H460 lung): 353 nM | TGI (NCI-H460 lung): 13000 nM | GI50 (CAKI-1 renal): 527 nM | TGI (CAKI-1 renal): > 100000 nM | GI50 (NCI/ADR-RES ovarian): 372 nM | TGI (NCI/ADR-RES ovarian): 83400 nM | GI50 (HL-60(TB) leukemia): 252 nM | TGI (HL-60(TB) leukemia): 637 nM | GI50 (SF-295 CNS): 348 nM | TGI (SF-295 CNS): 6810 nM | GI50 (HS 578T breast): 512 nM | TGI (HS 578T breast): 93600 nM | GI50 (SF-539 CNS): 301 nM | TGI (SF-539 CNS): 1200 nM | GI50 (HCC-2998 colon): 694 nM | TGI (HCC-2998 colon): 11000 nM | GI50 (DU-145 prostate): 405 nM | TGI (DU-145 prostate): 14700 nM | GI50 (UO-31 renal): 767 nM | TGI (UO-31 renal): > 100000 nM | GI50 (SW-620 colon): 357 nM | TGI (SW-620 colon): > 100000 nM | GI50 (OVCAR-4 ovarian): 1040 nM | TGI (OVCAR-4 ovarian): > 100000 nM | GI50 (SK-OV-3 ovarian): 485 nM | TGI (SK-OV-3 ovarian): 44200 nM | GI50 (A498 renal): 169 nM | TGI (A498 renal): 862 nM | GI50 (KM12 colon): 398 nM | TGI (KM12 colon): 17300 nM | GI50 (HCT-15 colon): 432 nM | TGI (HCT-15 colon): > 100000 nM
